Measured values taken from US6864271B2, “Synergistic combinations including N-acylated 4-hydroxyphenylamine derivatives” (The Foundation for the LSU Health Sciences Center, priority 2002, dated 2005).

Columns and labels:
C57/b16 mice [1] = details: prior work (Paul et al., 1998; Bazan patents); cited from earlier work
mice [2] = test: abdominal stretch assay (i.p. acetic acid); assay type: in vivo, mouse; details: oral, FIG. 1; for number of abdominal stretches (percentage of control): 55 min before i.p. 10 ml/kg 0.4% acetic acid, counted 10 min
mice [3] = details: background statement; cited from earlier work
mice [4] = details: cited from earlier work
[5] = background statement; cited from earlier work
[6] = background statement; cited from earlier work; remark: listed apart in the source
C57/b16 mice [7] = test: hepatotoxicity study, transaminase activity after oral dosing; details: 24 hours after oral dose in corn oil; acetaminophen/SCP-1 3.7 mmole/kg, codeine 50 mg/kg; FIG. 3

Compound	hepatotoxicity (C57/b16 mice [1])	analgesic potency compared with acetaminophen (mice [2]; abdominal stretch assay, mice)	number of abdominal stretches (percentage of control) (mice [2])	potency compared with acetaminophen, abdominal stretch (mice [3])	toxicity compared with acetaminophen (mice [4]; Paul et al., 1998)	potency compared with acetaminophen, Freund's adjuvant-induced inflammation [5]	potency compared with acetaminophen, formalin [6]	GPT activity in serum (C57/b16 mice [7])	LD50 (mice [4]; mice) [mmol/kg]
O=C(CN1C(=O)c2ccccc2S1(=O)=O)Nc1ccc(O)cc1 [SCP-1]	lower in hepatotoxicity	significantly greater than acetaminophen	dose-dependent decrease	more potent	lower in toxicity	more potent	more potent	neither SCP-1 nor codeine, nor the combination of both, produced any significant increase	
CC(=O)Nc1ccc(O)cc1 [acetaminophen, reference compound]			dose-dependent decrease						3.7
COc1ccc2c3c1O[C@H]1[C@@H](O)C=C[C@H]4[C@@H](C2)N(C)CC[C@@]341 [codeine, reference compound]			dose-dependent decrease					neither SCP-1 nor codeine, nor the combination of both, produced any significant increase	
